According to BindingDB's records for doi:10.1021/jm030472z (Neurocrine Biosciences, 2004):

Tests used:
[1] = biological target: Gonadotropin-releasing hormone receptor (Macaca mulatta); assay: […] inhibition of monkey Gonadotropin releasing hormone receptor
[2] = biological target: Gonadotropin-releasing hormone receptor (Macaca mulatta); assay: […] inhibition of monkey Gonadotropin-releasing hormone receptor

Ki [1] [nM] | Ki [2] [nM] | SMILES
820 | – | COc1cccc(-c2c(C)n(Cc3c(F)cccc3F)c(=O)n(C[C@@H](C)NCc3nccs3)c2=O)c1F [1-(2,6-Difluoro-benzyl)-5-(2-fluoro-3-methoxy-phenyl)-6-methyl-3-{(R)-2-[(thiazol-2-ylmethyl)-amino]-propyl}-1H-pyrimidine-2,4-dione]
– | 87 | COc1cccc(-c2c(C)n(Cc3c(F)cccc3F)c(=O)n(C[C@H](C)NCc3sccc3C)c2=O)c1F [1-(2,6-Difluoro-benzyl)-5-(2-fluoro-3-methoxy-phenyl)-6-methyl-3-{(S)-2-[(3-methyl-thiophen-2-ylmethyl)-amino]-propyl}-1H-pyrimidine-2,4-dione]
– | 550 | COc1cccc(-c2c(C)n(Cc3c(F)cccc3F)c(=O)n(C[C@H](C)NCc3ccccc3)c2=O)c1F [3-((S)-2-Benzylamino-propyl)-1-(2,6-difluoro-benzyl)-5-(2-fluoro-3-methoxy-phenyl)-6-methyl-1H-pyrimidine-2,4-dione]
